Assay results taken from PubChem BioAssay (NCI).
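How tested: cells in 96-well plates exposed to compound for 48 hours at five concentrations. The concentration for full growth arrest is given as TGI.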

Legend:
Test in all cases: NCI tumour cell line growth inhibition, 48 h
DU-145 prostate = test system: DU-145 prostate
MCF7 breast = test system: MCF7 breast
NCI-H226 lung = test system: NCI-H226 lung
OVCAR-5 ovarian = test system: OVCAR-5 ovarian
SNB-19 CNS = test system: SNB-19 CNS
UO-31 renal = test system: UO-31 renal
RPMI-8226 leukemia = test system: RPMI-8226 leukemia
786-0 renal = test system: 786-0 renal
HCC-2998 colon = test system: HCC-2998 colon
T-47D breast = test system: T-47D breast
MDA-MB-231 breast = test system: MDA-MB-231 breast
SN12C renal = test system: SN12C renal
A498 renal = test system: A498 renal
COLO 205 colon = test system: COLO 205 colon
SR leukemia = test system: SR leukemia
HOP-62 NSCLC = test system: HOP-62 NSCLC
MALME-3M melanoma = test system: MALME-3M melanoma
SK-MEL-2 melanoma = test system: SK-MEL-2 melanoma
HS 578T breast = test system: HS 578T breast
HT29 colon = test system: HT29 colon
HCT-116 colon = test system: HCT-116 colon
NCI/ADR-RES ovarian = test system: NCI/ADR-RES ovarian
RXF 393 renal = test system: RXF 393 renal
U251 CNS = test system: U251 CNS
MOLT-4 leukemia = test system: MOLT-4 leukemia
LOX IMVI melanoma = test system: LOX IMVI melanoma
UACC-257 melanoma = test system: UACC-257 melanoma
MDA-N = test system: MDA-N
EKVX NSCLC = test system: EKVX NSCLC
NCI-H23 lung = test system: NCI-H23 lung
TK-10 renal = test system: TK-10 renal
IGROV1 ovarian = test system: IGROV1 ovarian
MDA-MB-435 = test system: MDA-MB-435
SF-295 CNS = test system: SF-295 CNS
OVCAR-4 ovarian = test system: OVCAR-4 ovarian
SNB-75 CNS = test system: SNB-75 CNS
SF-268 CNS = test system: SF-268 CNS
SW-620 colon = test system: SW-620 colon
SF-539 CNS = test system: SF-539 CNS
HCT-15 colon = test system: HCT-15 colon
OVCAR-8 ovarian = test system: OVCAR-8 ovarian
K-562 leukemia = test system: K-562 leukemia
UACC-62 melanoma = test system: UACC-62 melanoma
A549 NSCLC = test system: A549 NSCLC
OVCAR-3 ovarian = test system: OVCAR-3 ovarian
HOP-92 NSCLC = test system: HOP-92 NSCLC
NCI-H460 lung = test system: NCI-H460 lung
ACHN renal = test system: ACHN renal
SK-OV-3 ovarian = test system: SK-OV-3 ovarian
PC-3 prostate = test system: PC-3 prostate
CAKI-1 renal = test system: CAKI-1 renal
HL-60(TB) leukemia = test system: HL-60(TB) leukemia
M14 melanoma = test system: M14 melanoma
KM12 colon = test system: KM12 colon
SK-MEL-28 melanoma = test system: SK-MEL-28 melanoma
NCI-H522 lung = test system: NCI-H522 lung
CCRF-CEM leukemia = test system: CCRF-CEM leukemia
SK-MEL-5 melanoma = test system: SK-MEL-5 melanoma

In the case of `CSC(Cc1ccc2c(c1)Sc1ccccc1O2)=[N+]1CCOCC1`, the TGI (DU-145 prostate) is reported as > 100 µM, the TGI (MCF7 breast) is reported as > 100 µM and the TGI (NCI-H226 lung) is reported as > 100 µM. The TGI (OVCAR-5 ovarian) was > 100 µM, the TGI (SNB-19 CNS) was > 100 µM and the TGI (UO-31 renal) was > 100 µM. The TGI (RPMI-8226 leukemia) was > 100 µM, the TGI (786-0 renal) was > 100 µM and the TGI (HCC-2998 colon) was > 100 µM. The TGI (T-47D breast) was > 100 µM, the TGI (MDA-MB-231 breast) was > 100 µM and the TGI (SN12C renal) was > 100 µM. The TGI (A498 renal) was > 100 µM, the TGI (COLO 205 colon) was > 100 µM and the TGI (SR leukemia) was 11.7 µM. The TGI (HOP-62 NSCLC) was > 100 µM, the TGI (MALME-3M melanoma) was 90.9 µM and the TGI (SK-MEL-2 melanoma) was > 100 µM. The TGI (HS 578T breast) was 86.6 µM, the TGI (HT29 colon) was > 100 µM and the TGI (HCT-116 colon) was > 100 µM. The TGI (NCI/ADR-RES ovarian) was > 100 µM, the TGI (RXF 393 renal) was > 100 µM and the TGI (U251 CNS) was > 100 µM. For the same molecule, the TGI (MOLT-4 leukemia) was > 100 µM, the TGI (LOX IMVI melanoma) was > 100 µM and the TGI (UACC-257 melanoma) was > 100 µM. For the same molecule, the TGI (MDA-N) was > 100 µM, the TGI (EKVX NSCLC) was > 100 µM and the TGI (NCI-H23 lung) was > 100 µM. For the same molecule, the TGI (TK-10 renal) was > 100 µM, the TGI (IGROV1 ovarian) was > 100 µM and the TGI (MDA-MB-435) was > 100 µM. For the same molecule, the TGI (SF-295 CNS) was > 100 µM, the TGI (OVCAR-4 ovarian) was > 100 µM and the TGI (SNB-75 CNS) was > 100 µM. For the same molecule, the TGI (SF-268 CNS) was > 100 µM, the TGI (SW-620 colon) was > 100 µM and the TGI (SF-539 CNS) was > 100 µM. The TGI (HCT-15 colon) was > 100 µM, the TGI (OVCAR-8 ovarian) was > 100 µM and the TGI (K-562 leukemia) was > 100 µM. The TGI (UACC-62 melanoma) was > 100 µM, the TGI (A549 NSCLC) was > 100 µM and the TGI (OVCAR-3 ovarian) was > 100 µM. The TGI (HOP-92 NSCLC) was > 100 µM, the TGI (NCI-H460 lung) was > 100 µM and the TGI (ACHN renal) was > 100 µM. The TGI (SK-OV-3 ovarian) was > 100 µM, the TGI (PC-3 prostate) was > 100 µM and the TGI (CAKI-1 renal) was > 100 µM. For the same molecule, the TGI (HL-60(TB) leukemia) was > 100 µM, the TGI (M14 melanoma) was > 100 µM and the TGI (KM12 colon) was > 100 µM. The TGI (SK-MEL-28 melanoma) was > 100 µM.
In the case of `CCOC(=O)c1c(SCc2ccccc2)nc2c3ccccc3ccn12`, the TGI (DU-145 prostate) is reported as > 100 µM, the TGI (MCF7 breast) is reported as > 100 µM and the TGI (NCI-H226 lung) is reported as > 100 µM. For the same molecule, the TGI (OVCAR-5 ovarian) was > 100 µM, the TGI (RPMI-8226 leukemia) was > 100 µM and the TGI (786-0 renal) was > 100 µM. The TGI (HCC-2998 colon) was > 100 µM, the TGI (T-47D breast) was > 100 µM and the TGI (MDA-MB-231 breast) was > 100 µM. The TGI (SN12C renal) was > 100 µM, the TGI (A498 renal) was > 100 µM and the TGI (COLO 205 colon) was > 100 µM. For the same molecule, the TGI (SR leukemia) was > 100 µM, the TGI (HOP-62 NSCLC) was > 100 µM and the TGI (MALME-3M melanoma) was > 100 µM. For the same molecule, the TGI (SK-MEL-2 melanoma) was > 100 µM, the TGI (HS 578T breast) was 58.3 µM and the TGI (NCI-H522 lung) was > 100 µM. For the same molecule, the TGI (HT29 colon) was > 100 µM, the TGI (HCT-116 colon) was > 100 µM and the TGI (NCI/ADR-RES ovarian) was > 100 µM. For the same molecule, the TGI (RXF 393 renal) was > 100 µM, the TGI (U251 CNS) was > 100 µM and the TGI (MOLT-4 leukemia) was > 100 µM. The TGI (LOX IMVI melanoma) was > 100 µM, the TGI (CCRF-CEM leukemia) was > 100 µM and the TGI (UACC-257 melanoma) was > 100 µM. The TGI (MDA-N) was > 100 µM, the TGI (EKVX NSCLC) was > 100 µM and the TGI (NCI-H23 lung) was > 100 µM. The TGI (IGROV1 ovarian) was > 100 µM, the TGI (MDA-MB-435) was > 100 µM and the TGI (SF-295 CNS) was > 100 µM. For the same molecule, the TGI (OVCAR-4 ovarian) was > 100 µM, the TGI (SNB-75 CNS) was > 100 µM and the TGI (SF-268 CNS) was > 100 µM. The TGI (SW-620 colon) was > 100 µM, the TGI (SF-539 CNS) was > 100 µM and the TGI (HCT-15 colon) was > 100 µM. The TGI (OVCAR-8 ovarian) was > 100 µM, the TGI (SK-MEL-5 melanoma) was > 100 µM and the TGI (K-562 leukemia) was > 100 µM. The TGI (UACC-62 melanoma) was > 100 µM, the TGI (A549 NSCLC) was > 100 µM and the TGI (HOP-92 NSCLC) was 27.5 µM. For the same molecule, the TGI (NCI-H460 lung) was > 100 µM, the TGI (ACHN renal) was > 100 µM and the TGI (SK-OV-3 ovarian) was > 100 µM. For the same molecule, the TGI (PC-3 prostate) was > 100 µM, the TGI (CAKI-1 renal) was > 100 µM and the TGI (HL-60(TB) leukemia) was > 100 µM. For the same molecule, the TGI (M14 melanoma) was > 100 µM, the TGI (KM12 colon) was > 100 µM and the TGI (SK-MEL-28 melanoma) was > 100 µM.
In the case of `O=C(Nc1ccc(Cl)cc1)c1cc2c(cc1Cl)Sc1nccn1S2(=O)=O`, the TGI (DU-145 prostate) is reported as > 100 µM, the TGI (MCF7 breast) is reported as > 100 µM and the TGI (NCI-H226 lung) is reported as > 100 µM. The TGI (OVCAR-5 ovarian) was > 100 µM, the TGI (SNB-19 CNS) was > 100 µM and the TGI (786-0 renal) was > 100 µM. For the same molecule, the TGI (HCC-2998 colon) was > 100 µM, the TGI (T-47D breast) was > 100 µM and the TGI (MDA-MB-231 breast) was > 100 µM. For the same molecule, the TGI (SN12C renal) was > 100 µM, the TGI (A498 renal) was > 100 µM and the TGI (COLO 205 colon) was > 100 µM. For the same molecule, the TGI (SR leukemia) was > 100 µM, the TGI (HOP-62 NSCLC) was > 100 µM and the TGI (MALME-3M melanoma) was > 100 µM. The TGI (SK-MEL-2 melanoma) was > 100 µM, the TGI (HS 578T breast) was 97.4 µM and the TGI (NCI-H522 lung) was > 100 µM. For the same molecule, the TGI (HT29 colon) was > 100 µM, the TGI (HCT-116 colon) was > 100 µM and the TGI (NCI/ADR-RES ovarian) was > 100 µM. The TGI (RXF 393 renal) was > 100 µM, the TGI (U251 CNS) was 39.6 µM and the TGI (MOLT-4 leukemia) was > 100 µM. The TGI (LOX IMVI melanoma) was > 100 µM, the TGI (CCRF-CEM leukemia) was > 100 µM and the TGI (MDA-N) was > 100 µM. The TGI (EKVX NSCLC) was > 100 µM, the TGI (IGROV1 ovarian) was > 100 µM and the TGI (MDA-MB-435) was > 100 µM. The TGI (SF-295 CNS) was > 100 µM, the TGI (OVCAR-4 ovarian) was > 100 µM and the TGI (SNB-75 CNS) was 25.2 µM. The TGI (SF-268 CNS) was > 100 µM, the TGI (SW-620 colon) was > 100 µM and the TGI (SF-539 CNS) was > 100 µM. For the same molecule, the TGI (HCT-15 colon) was > 100 µM, the TGI (OVCAR-8 ovarian) was > 100 µM and the TGI (SK-MEL-5 melanoma) was > 100 µM. For the same molecule, the TGI (K-562 leukemia) was > 100 µM, the TGI (A549 NSCLC) was > 100 µM and the TGI (OVCAR-3 ovarian) was > 100 µM. The TGI (NCI-H460 lung) was > 100 µM, the TGI (ACHN renal) was > 100 µM and the TGI (SK-OV-3 ovarian) was > 100 µM. The TGI (PC-3 prostate) was > 100 µM, the TGI (CAKI-1 renal) was > 100 µM and the TGI (M14 melanoma) was > 100 µM. For the same molecule, the TGI (KM12 colon) was > 100 µM and the TGI (SK-MEL-28 melanoma) was > 100 µM.
